From patent publication US6552011B1, “(Androst-5-en-17beta -yl)alkyl sulfoxides and sulfones and their use for control of fertility” (Akzo Nobel NV, priority 1999, dated 2003) come the findings set out here.

Holding throughout (assay type): cell-based, mice (B6D2-F1, strain C57BL×DBA)
Assay [1] deals with cumulus enclosed oocytes (CEO). Briefly: Oocyte assay, antagonistic testing, CEO assay (inhibition of 22S-hydroxy-FF-Mas induced oocyte maturation). The note with it: 22S-hydroxy-FF-Mas 5 μM, hypoxanthine 4 mM medium, 22 hours culture, number in brackets = control (22S-hydroxy-FF-Mas alone). The protocol:
(§1) The meiosis inhibiting activity of the (androst-5-en-17β-yl)alkyl sulfoxides and sulfones of the invention is measured in an in vitro oocyte assay as the ability to inhibit the FF-Mas or 22S-hydroxy-FF-Mas induced maturation, in hypoxanthine media, in denuded oocytes (DO) or cumulus enclosed oocytes (CEO), respectively. The compounds can be used to inhibit meiosis in both male and female and thus can be used as contraceptive agents.
(§2) Natural resumption of meiosis can be mimicked in vitro by addition of FF-Mas or other agonists to the culture medium containing hypoxanthine. The antagonistic activity of the compounds is measured as the ability to inhibit the FF-Mas or 22S-hydroxy-FF-Mas induced oocyte maturation in denuded oocytes or cumulus enclosed oocytes, respectively, in vitro.
(§3) Ovaries are obtained from immature female mice (B6D2-F1, strain C57BL×DBA). At the age of 19, 20 or 21 days the mice are injected subcutaneously with a single dose of 20 IU follicle stimulating hormone (Humegon, Organon, The Netherlands) in saline.
Forty-eight hours after follicle stimulating hormone injection mice are killed by cervical dislocation. The ovaries are removed, freed of extraneous tissue and placed in a multidish containing 0.5 ml preparation medium at 37° C. […]
(§4) The oocyte assay is performed in 3 blocks, each block represents the ovaries of one mouse (randomized block design). […] At t=0 the number of oocytes with intact germinal vesicles (GV) or germinal vesicle break-down (GVBD) is counted under an inverted microscope with differential interference contrast equipment. […] At the end of the culture period the number of oocytes with GV or GVBD per group is counted. For statistical analysis the percentage germinal vesicle breakdown is calculated for each group in one block. These percentages are subjected to arcsin transformation, and differences between control and test compounds are analyzed by an ANOVA test for a randomized block design. […]

Assay [2] has as its system denuded oocytes (DO). As to the kind of experiment: Oocyte assay, antagonistic testing, DO assay (inhibition of FF-Mas induced oocyte maturation). The note with it: FF-Mas 5 μM, compound 5 μM, hypoxanthine 4 mM medium, 22 hours culture, number in brackets = control (FF-Mas alone). The method, then: as §1, §2, §3
Forty-eight hours after follicle stimulating hormone injection mice are killed by cervical dislocation. The ovaries are removed, freed of extraneous tissue and placed in a multidish containing 0.5 ml preparation medium at 37° C. L-15 Leibovitz medium (Gibco, pH 7.3±0.1) supplemented with bovine serum albumin (3 mg.ml^−1), L-glutamine (0.23 mM), sodium pyruvate (2 mM) and hypoxanthine (4 mM) is used as preparation medium. […]
The oocyte assay is performed in 3 blocks, each block represents the ovaries of one mouse (randomized block design). […] At t=0 the number of oocytes with intact germinal vesicles (GV) or germinal vesicle break-down (GVBD) is counted under an inverted microscope with differential interference contrast equipment. […] At the end of the culture period the number of oocytes with GV or GVBD per group is counted. For statistical analysis the percentage germinal vesicle breakdown is calculated for each group in one block. […]

For assay [3], the system named is denuded oocytes (DO). As to the kind of experiment: Oocyte assay, agonistic testing, DO assay (overcoming hypoxanthine maintained meiotic arrest). The note with it: hypoxanthine 4 mM medium, 22 hours culture, number in brackets = control.
From the text: Oocytes arrested in meiosis contain diffused chromosomes which are surrounded by an intact nuclear envelope known as the germinal vesicle (GV). Upon reinitiation of meiosis by the midcycle gonadotropin surge, the chromosomes recondense and the GV breaks down (GVBD). In vivo, the oocyte is exposed to hypoxanthine (HX), which maintains the oocyte arrested in the meiotic prophase. This meiotic arrest can be mimicked in vitro by addition of hypoxanthine to the culture medium. The agonistic activity of meiosis activating substances is measured as the ability to overcome the hypoxanthine maintained meiotic arrest in denuded oocytes (DO) or cumulus enclosed oocytes (CEO), i.e. as the ability to induce meiotic resumption in vitro.
as §3
Forty-eight hours after follicle stimulating hormone injection mice are killed by cervical dislocation. The ovaries are removed, freed of extraneous tissue and placed in a multidish containing 0.5 ml preparation medium at 37° C. L-15 Leibovitz medium (Gibco, pH 7.3±0.1) supplemented with bovine serum albumin (3 mg.ml^−1), L-glutamine (0.23 mM), sodium pyruvate (2 mM) and hypoxanthine (4 mM) is used as preparation medium. The antral follicles of the ovaries are punctured under a dissecting microscope using two 27-gauge needles attached to two 1 ml syringes. Cumulus enclosed oocytes (CEO) of uniform size are selected with a mouth-controlled pipette and rinsed in 0,5 ml fresh preparation medium. About 20 CEO are obtained from one ovary.
Oocytes freed from cumulus cells, i.e. denuded oocytes (DO), are obtained by gently flushing CEO through a fine-bore mouth-controlled pipette. DO were collected in fresh MEM alpha medium, containing bovine serum albumin (3 mg.ml^−1), L-glutamine (0.23 mM), sodium pyruvate (2 mM) and hypoxanthine (4 mM), and washed twice before transfer to the test medium.
as §4

Take `CC(C)CC[C@@H](O)[C@@H](C)[C@H]1CC[C@H]2[C@@H]3CC=C4C[C@@H](O)CC[C@]4(C)[C@H]3CC[C@]12C` [22R-hydroxycholesterol, (3β,20S,22R)-cholest-5-en-3-ol, reference compound]: the “% GVBD CEO assay exp.(control)” value in assay [1] (compound 2.5 μM) was 52(89)^4%. In the assay with denuded oocytes (DO) [2], the “% GVBD DO assay exp.(control)” value is on record as 38(89) %.
Turning to `CC(C)=CC[C@H](O)[C@@H](C)[C@H]1CC=C2C3=C(CC[C@@]21C)[C@@]1(C)CC[C@H](O)C(C)(C)[C@@H]1CC3` [22S-hydroxy-FF-Mas, (3β,5α,20S,22S)-4,4-dimethylcholesta-8,14,24-triene-3,22-diol, reference compound], the “% GVBD DO assay exp.(control)” value in the assay with denuded oocytes (DO) [3] (compound 5 μM) is 97(2) %.
As for `C=C(C)C[S@+]([O-])C[C@@H](C)[C@H]1CC[C@H]2[C@@H]3CC=C4C(C)(C)[C@@H](O)CC[C@]4(C)[C@H]3CC[C@]12C` [Example 1a, [3β,20S,(21R)]-4,4,20-Trimethyl-21-[(2-methyl-2-propenyl)sulfinyl]pregn-5-en-3-ol], in assay [1] (compound 1.0 μM), the “% GVBD CEO assay exp.(control)” value is reported as 9(96)^3%. For the same compound, the entries for the “% GVBD DO assay exp.(control)” value with denuded oocytes (DO) [2] and in the assay with denuded oocytes (DO) [3] (compound 5 μM) were 14(84) % and 3(12) %, respectively.
Turning to `C[C@H](C[S@@+]([O-])c1ccccc1)[C@H]1CC[C@H]2[C@@H]3CC=C4C(C)(C)[C@@H](O)CC[C@]4(C)[C@H]3CC[C@]12C` [Example 3a, [3β,20S,(21R)]-4,4,20-Trimethyl-21-(phenylsulfinyl)pregn-5-en-3-ol], in assay [1] (compound 1.0 μM), the “% GVBD CEO assay exp.(control)” value is given as 34(96)^3%. Also, the “% GVBD DO assay exp.(control)” value is on record as 4(84) % with denuded oocytes (DO) [2] and 4(12) % with denuded oocytes (DO) [3] (compound 5 μM).
`CC(C)=CCC[C@@H](C)[C@H]1CC=C2C3=C(CC[C@@]21C)[C@@]1(C)CC[C@H](O)C(C)(C)[C@@H]1CC3` [FF-Mas, (3β,5α,20R)-4,4-dimethylcholesta-8,14,24-trien-3-ol, reference compound]: the “% GVBD DO assay exp.(control)” value in the assay on denuded oocytes (DO) [3] (compound 10 μM) is 84(7) %.
